In patent US20110212899A1, “Corneal Neuritogenesis Promoter Containing Pacap and Its Derivative” (priority 2004, published 2011):
Where no end group is shown, it is not given here.

Key:
[1] = tested on: excised rabbit lacrimal gland; assay: Promoting effect on protein secretion from an excised lacrimal gland (2) (Test Example 5); type: cell-based; details: 10^−7 M, incubated 60 minutes; p<0.05
Procedure: A lacrimal gland was excised from a rabbit and incubated in a solution containing PACAP27 or peptide 24, and changes in the amount of secreted protein were examined as lacrimal gland stimulating activity.
Japanese white rabbits with a body weight of 1.5 to 2.0 kg purchased from Fukusaki Rabbit warren were used. The animals were each put in separate cages placed in a room wherein a temperature of 23±3° C. and a humidity of 55±10% were kept and a light was on for 12 hours per day (lighting at 8:00 and lights-out at 20:00), and raised after arrival until the final day of the test. The animals were given 100 g of solid feed (Labo R Stock, Nosan Corporation) per day, and could freely have tap water.
PACAP27 and peptide 24 were used as test substances. Test substance solutions were prepared as follows. […]
The section sample in a stationary state was incubated in 0.5 mL of a fresh incubation solution at 37° C. for 20 minutes under a mixed gas atmosphere of 95% oxygen and 5% carbon dioxide. After completion of the incubation, the incubation solution was collected, and the protein amount in the solution was determined by using a protein staining reagent (DC Protein Assay Reagent, Bio Rad). […] The incubation solution was collected, and the protein amount in the incubation solution was determined. […]

[2] = tested on: cultured rabbit trigeminal nerve cells; assay: Promoting effect on neuritogenesis in cultured rabbit trigeminal nerve cells (2) (Test Example 4); type: cell-based; details: cultured for 48 hours, control group 20.7%
Text: Japanese white rabbits (2 to 3 days old) purchased from Kitayama Labes Co., Lid. were used.
Rabbit trigeminal nerve cells were isolated according to a method reported by Chan et al. (Kwan Y. Chan and Richard H. Haschke, Exp. Eye Res. 41: 687-699, 1985). The rabbit was subjected to cardiac perfusion with physiological saline under ether anesthesia. A trigeminal ganglion was excised from the rabbit, and then dispersed in a nerve dispersion liquid (Sumitomo Bakelite Co., Ltd.) to prepare trigeminal nerve cells. The trigeminal nerve cells were cultured in Neurobasal medium (Invitrogen Corp) supplemented with B27 Supplement (Invitrogen Corp; final concentration: 2% v/v) and L-glutamine (Invitrogen Corp; final concentration: 1 mM) under 5% CO2 and 95% air at a humidity of 100% and a temperature of 37° C. […]
For evaluating neuritogenesis in the cultured rabbit trigeminal nerve cells, the length of the longest neurite and the major axis of the cell body in the stained cell images scanned into the computer were measured using image analysis software (Image-Pro Plus ver. 4.0, Planetron, Inc.) The cells in 3 wells for each group were measured. […] The proportion (%) of the neurite forming cells in the total cell number was calculated (Otori, Y., Wei, J. Y., Barnstable, C. J., Invest. Opthalmol. Vis. Sic., (1998)39, 972-981). […]

In the case of “His-Ser-Asp-Ala-Ile-Phe-Thr-Asp-Ser-Tyr-Ser-Arg-Tyr-Arg-Arg-Gln-Leu-Ala-Val-Arg-Arg-Tyr-Leu-Ala-Ala-Val-Leu-Gly-Arg-Arg-NH2 (HSDAIFTDSYSRYRRQLAVRRYLAAVLGRR-NH2) [Peptide 24]”, the “protein secretion rate of excised lacrimal gland compared with control group” value [1] is reported as “significant increase”, the “proportion (%) of the neurite forming cells in the total cell number” value ([2]; 0.1 μM) is reported as 42.5% and the “proportion (%) of the neurite forming cells in the total cell number” value ([2]; 1 μM) is reported as 51.4%.
